Test results published in patent US4731451A, “N-((2-oxo-3(2H)benzothiazolyl)methyl)-2-chloroacetanilides” (Monsanto Company, priority 1980, dated 1988).

Legend:
Assay in all cases: Pre-emergent herbicidal activity (Table III)
Type in all cases: in vivo
Rice = system: Rice
Method in brief: (§1)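 Percent injury per species, converted to a fixed rating scale, is recorded roughly 2-3 weeks after seeding and treatment. The compound is mixed through the soil used to cover the seeds, and pans are held in a greenhouse and watered from below.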

Wheat = system: Wheat
Method in brief: as §1

Morningglory = system: Morningglory
Method in brief: as §1

Soybean = system: Soybean
Method in brief: as §1

Hemp Sesbania = system: Hemp Sesbania
Method in brief: as §1

Sorghum = system: Sorghum
Method in brief: as §1

Crabgrass = system: Crabgrass
Method in brief: as §1

Barnyardgrass = system: Barnyardgrass
Method in brief: as §1

Smartweed = system: Smartweed
Method in brief: as §1
Further: ranges in brackets are in %.

With `CC1=C(N(Cn2c(=O)sc3ccccc32)C(=O)CCl)C(C)CCC1` (centres unmarked) [Example 1, N-(2,6-dimethyl-1-cyclohexen-1-yl)-N-[(2-oxo-3(2H)-benzothiazolyl)methyl]-2-chloroacetamide] the Herbicidal rating (Rice; 0.0056 kg/ha) was 1 (25-49), the Herbicidal rating (Rice; 0.0112 kg/ha) was 1 (25-49) and the Herbicidal rating (Rice; 0.056 kg/ha) was 0 (0-24). For the same compound, the Herbicidal rating (Rice; 0.28 kg/ha) was 2 (50-74), the Herbicidal rating (Rice; 1.12 kg/ha) was 2 (50-74) and the Herbicidal rating (Rice; 5.6 kg/ha) was 2 (50-74). For the same compound, the Herbicidal rating (Wheat; 0.0056 kg/ha) was 0 (0-24), the Herbicidal rating (Wheat; 0.0112 kg/ha) was 0 (0-24) and the Herbicidal rating (Wheat; 0.056 kg/ha) was 0 (0-24). For the same compound, the Herbicidal rating (Wheat; 0.28 kg/ha) was 0 (0-24), the Herbicidal rating (Wheat; 1.12 kg/ha) was 1 (25-49) and the Herbicidal rating (Wheat; 5.6 kg/ha) was 0 (0-24). For the same compound, the Herbicidal rating (Morningglory; 0.0056 kg/ha) was 3 (75-100), the Herbicidal rating (Morningglory; 0.0112 kg/ha) was 3 (75-100) and the Herbicidal rating (Morningglory; 0.056 kg/ha) was 1 (25-49). For the same compound, the Herbicidal rating (Morningglory; 0.28 kg/ha) was 0 (0-24), the Herbicidal rating (Morningglory; 1.12 kg/ha) was 0 (0-24) and the Herbicidal rating (Morningglory; 5.6 kg/ha) was 0 (0-24). The Herbicidal rating (Soybean; 0.0056 kg/ha) was 0 (0-24), the Herbicidal rating (Soybean; 0.0112 kg/ha) was 0 (0-24) and the Herbicidal rating (Soybean; 0.056 kg/ha) was 1 (25-49). The Herbicidal rating (Soybean; 0.28 kg/ha) was 0 (0-24), the Herbicidal rating (Soybean; 1.12 kg/ha) was 0 (0-24) and the Herbicidal rating (Soybean; 5.6 kg/ha) was 1 (25-49). The Herbicidal rating (Hemp Sesbania; 0.0112 kg/ha) was 1 (25-49), the Herbicidal rating (Hemp Sesbania; 0.056 kg/ha) was 0 (0-24) and the Herbicidal rating (Sorghum; 0.0056 kg/ha) was 0 (0-24). The Herbicidal rating (Sorghum; 0.0112 kg/ha) was 1 (25-49), the Herbicidal rating (Sorghum; 0.056 kg/ha) was 0 (0-24) and the Herbicidal rating (Sorghum; 0.28 kg/ha) was 0 (0-24). The Herbicidal rating (Sorghum; 1.12 kg/ha) was 3 (75-100), the Herbicidal rating (Sorghum; 5.6 kg/ha) was 1 (25-49) and the Herbicidal rating (Crabgrass; 0.0056 kg/ha) was 3 (75-100). For the same compound, the Herbicidal rating (Crabgrass; 0.0112 kg/ha) was 2 (50-74), the Herbicidal rating (Crabgrass; 0.056 kg/ha) was 3 (75-100) and the Herbicidal rating (Crabgrass; 0.28 kg/ha) was 3 (75-100). The Herbicidal rating (Crabgrass; 1.12 kg/ha) was 3 (75-100), the Herbicidal rating (Crabgrass; 5.6 kg/ha) was 3 (75-100) and the Herbicidal rating (Barnyardgrass; 0.0056 kg/ha) was 3 (75-100). For the same compound, the Herbicidal rating (Barnyardgrass; 0.0112 kg/ha) was 3 (75-100), the Herbicidal rating (Barnyardgrass; 0.056 kg/ha) was 3 (75-100) and the Herbicidal rating (Barnyardgrass; 0.28 kg/ha) was 3 (75-100). For the same compound, the Herbicidal rating (Barnyardgrass; 1.12 kg/ha) was 3 (75-100), the Herbicidal rating (Barnyardgrass; 5.6 kg/ha) was 3 (75-100) and the Herbicidal rating (Smartweed; 0.0056 kg/ha) was 1 (25-49). For the same compound, the Herbicidal rating (Smartweed; 0.0112 kg/ha) was 1 (25-49), the Herbicidal rating (Smartweed; 0.056 kg/ha) was 1 (25-49) and the Herbicidal rating (Smartweed; 0.28 kg/ha) was 1 (25-49). The Herbicidal rating (Smartweed; 1.12 kg/ha) was 0 (0-24) and the Herbicidal rating (Smartweed; 5.6 kg/ha) was 0 (0-24).
